Test results: patent US8673894B2 (Hoffmann-La Roche Inc., priority 2010, dated 2014)

Experiments:
[1] = target: T1, endogenous cellular BACE2 (Rattus norvegicus, UniProt Q6IE75); test: Assay for BACE inhibition by measuring cellular TMEM27 cleavage; type: cell-based; conditions: INS-TMEM27 (INS1e-derived) cells, shed human TMEM27 in supernatant by ELISA
T1 construct: endogenous cellular BACE2 in the Ins1e rat cell line; endogenous in cells; host or cells: INS-TMEM27 (INS1e-derived rat insulinoma cell line with doxycycline-inducible full-length human TMEM27)
T1 sequence (Q6IE75 63-514): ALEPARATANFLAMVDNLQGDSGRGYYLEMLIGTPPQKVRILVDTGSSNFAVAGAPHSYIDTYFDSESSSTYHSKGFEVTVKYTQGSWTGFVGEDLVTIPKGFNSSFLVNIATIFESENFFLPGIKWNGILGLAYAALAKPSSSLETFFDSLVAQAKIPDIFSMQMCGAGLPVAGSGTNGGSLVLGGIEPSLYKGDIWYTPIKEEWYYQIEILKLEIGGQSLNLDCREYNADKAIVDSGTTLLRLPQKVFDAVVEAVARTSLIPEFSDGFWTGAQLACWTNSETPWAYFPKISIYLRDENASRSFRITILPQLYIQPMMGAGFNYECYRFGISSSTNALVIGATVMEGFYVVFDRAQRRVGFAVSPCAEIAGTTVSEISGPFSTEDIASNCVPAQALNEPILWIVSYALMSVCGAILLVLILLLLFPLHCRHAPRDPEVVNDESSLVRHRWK
How it was run: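 INS1e rat cells with doxycycline-inducible human TMEM27 get inhibitor 2 h before doxycycline (500 ng/ml final), then 46 h further at 37° C. Shed TMEM27 in the supernatant is measured by sandwich ELISA, and the EC50 comes from a curve fit of the ELISA signal.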

[2] = test system: Aβ40; test: Cellular Aβ-lowering assay; type: cell-based; conditions: HEK293 cells stably expressing human APP695, Aβ40 in supernatant by ELISA after 18-20 hrs; read-out: Cellular assay Abeta40 IC50
How it was run: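 HEK293 cells stably expressing human wild-type APP695 were treated with compound for 18-20 h at 37 °C in 0.8% v/v DMSO. Secreted Aβ40 in the supernatant was measured by sandwich ELISA (Aβ40 C-terminus-specific capture, HRP-4G8 detection, TMB read at 450 nm) and quantified against a pure Aβ peptide standard curve.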

| Compound | IC50 [1] [nM] | IC50 [2] [nM] |
| --- | --- | --- |
| CC[C@]1(c2cc(NC(=O)c3nn(C(F)F)cc3Cl)ccc2F)N=C(N)COCC1(F)F [Example 116, (R)-N-(3-(3-Amino-5-ethyl-6,6-difluoro-2,5,6,7-tetrahydro-1,4-oxazepin-5-yl)-4-fluorophenyl)-4-chloro-1-(difluoromethyl)-1H-pyrazole-3-carboxamide] | 189 | 20 |
| CC1(C)OCC(N)=N[C@](C)(c2cc(NC(=O)c3ccc(C#N)cn3)c(F)cc2F)C1(F)F [Example 117, (R)-N-(5-(3-amino-6,6-difluoro-5,7,7-trimethyl-2,5,6,7-tetrahydro-1,4-oxazepin-5-yl)-2,4-difluorophenyl)-5-cyanopicolinamide] | 30000 | 34 |
| CC1(C)OCC(N)=N[C@](C)(c2cc(NC(=O)c3ccc(Cl)cn3)c(F)cc2F)C1(F)F [Example 118, (R)-N-(5-(3-amino-6,6-difluoro-5,7,7-trimethyl-2,5,6,7-tetrahydro-1,4-oxazepin-5-yl)-2,4difluorophenyl)-5-chloropicolinamide] | 14800 | 340 |

The next molecules have a lower IC50 [1] than those just listed; values first:

| IC50 [1] [nM] | IC50 [2] [nM] | Compound |
| --- | --- | --- |
| 123 | 35.8 | Cc1nc(C(=O)Nc2ccc(F)c([C@@]3(C)N=C(N)COCC3(F)F)c2)c(C(F)(F)F)o1 [Example 113, (R)-N-(3-(3-Amino-6,6-difluoro-5-methyl-2,5,6,7-tetrahydro-1,4-oxazepin-5-yl)-4-fluorophenyl)-2-methyl-5-(trifluoromethyl)oxazole-4-carboxamide] |
| 9.68 | 4.9 | C[C@]1(c2cc(NC(=O)c3nn(C(F)F)cc3Cl)ccc2F)N=C(N)COCC1(F)F [Example 114, (R)-N-(3-(3-Amino-6,6-difluoro-5-methyl-2,5,6,7-tetrahydro-1,4-oxazepin-5-yl)-4-fluorophenyl)-4-chloro-1-(difluoromethyl)-1H-pyrazole-3-carboxamide] |
| 6 | 3.8 | C[C@]1(c2cc(NC(=O)c3nn(C(F)F)cc3Cl)ccc2F)N=C(N)COC[C@@H]1F [Example 115, N-(3-((5R,6R)-3-Amino-6-fluoro-5-methyl-2,5,6,7-tetrahydro-1,4-oxazepin-5-yl)-4-fluorophenyl)-4-chloro-1-(difluoromethyl)-1H-pyrazole-3-carboxamide] |
| 9.03 | 0.8 | CC[C@]1(c2cc(NC3CCCC3)ccc2F)N=C(N)COCC1(F)F [Example 119, (R)-5-(5-(Cyclopentylamino)-2-fluorophenyl)-5-ethyl-6,6-difluoro-2,5,6,7-tetrahydro-1,4-oxazepin-3-amine] |
